In ChEMBL document CHEMBL4396913, “Synthesis and biological evaluation of hybrid quinolone-based quaternary ammonium antibacterial agents” (Eur J Med Chem, 2019):
In brackets after ≈: the same amount, converted by molar mass.

Legend:
[1] = Lipophilicity, log k of the compound at 100 ug/ml by micellar electrokinetic chromatography; type: physicochemical
Staphylococcus aureus [2] = test: Antibacterial activity against Staphylococcus aureus ATCC 6538 cultured in MH medium assessed as reduction in bacterial growth incubated for 48 hrs by microbroth dilution method; type: functional; settings: ATCC 6538, 48 h
Staphylococcus aureus [3] = test: Bactericidal activity against Staphylococcus aureus ATCC 6538 cultured in MH medium assessed as reduction in bacterial survival incubated for 48 hrs by microbroth dilution method; type: functional; settings: ATCC 6538, 48 h
Staphylococcus aureus [4] = test: Antibacterial activity against methicillin resistant Staphylococcus aureus N315 cultured in MH medium assessed as reduction in bacterial growth incubated for 48 hrs by microbroth dilution method; type: functional; settings: N315, 48 h
Staphylococcus aureus [5] = test: Bactericidal activity against methicillin resistant Staphylococcus aureus N315 cultured in MH medium assessed as reduction in bacterial survival incubated for 48 hrs by microbroth dilution method; type: functional; settings: N315, 48 h
[6] = test system: Staphylococcus epidermidis; test: Antibacterial activity against Staphylococcus epidermidis ATCC 14990 cultured in MH medium assessed as reduction in bacterial growth incubated for 48 hrs by microbroth dilution method; type: functional; settings: ATCC 14990, 48 h
[7] = test system: Staphylococcus epidermidis; test: Bactericidal activity against Staphylococcus epidermidis ATCC 14990 cultured in MH medium assessed as reduction in bacterial survival incubated for 48 hrs by microbroth dilution method; type: functional; settings: ATCC 14990, 48 h
Enterococcus hirae [8] = test: Antibacterial activity against Enterococcus hirae ATCC 1052 cultured in BHI medium assessed as reduction in bacterial growth incubated for 48 hrs by microbroth dilution method; type: functional; settings: ATCC 1052, 48 h
Bacillus spizizenii [9] = test: Antibacterial activity against Bacillus subtilis ATCC 6633 cultured in MH medium assessed as reduction in bacterial growth incubated for 48 hrs by microbroth dilution method; type: functional; settings: ATCC 6633, 48 h
Bacillus spizizenii [10] = test: Bactericidal activity against Bacillus subtilis ATCC 6633 cultured in MH medium assessed as reduction in bacterial survival incubated for 48 hrs by microbroth dilution method; type: functional; settings: ATCC 6633, 48 h
Escherichia coli [11] = test: Antibacterial activity against Escherichia coli ATCC 8739 cultured in MH medium assessed as reduction in bacterial growth incubated for 48 hrs by microbroth dilution method; type: functional; settings: ATCC 8739, 48 h
Escherichia coli [12] = test: Bactericidal activity against Escherichia coli ATCC 8739 cultured in MH medium assessed as reduction in bacterial survival incubated for 48 hrs by microbroth dilution method; type: functional; settings: ATCC 8739, 48 h
Pseudomonas aeruginosa [13] = test: Antibacterial activity against Pseudomonas aeruginosa ATCC 9027 cultured in MH medium assessed as reduction in bacterial growth incubated for 48 hrs by microbroth dilution method; type: functional; settings: ATCC 9027, 48 h
Pseudomonas aeruginosa [14] = test: Bactericidal activity against Pseudomonas aeruginosa ATCC 9027 cultured in MH medium assessed as reduction in bacterial survival incubated for 48 hrs by microbroth dilution method; type: functional; settings: ATCC 9027, 48 h
Proteus vulgaris [15] = test: Antibacterial activity against Proteus vulgaris NCTC 4635 cultured in MH medium assessed as reduction in bacterial growth incubated for 48 hrs by microbroth dilution method; type: functional; settings: NCTC 4635, 48 h
Proteus vulgaris [16] = test: Bactericidal activity against Proteus vulgaris NCTC 4635 cultured in MH medium assessed as reduction in bacterial survival incubated for 48 hrs by microbroth dilution method; type: functional; settings: NCTC 4635, 48 h
Staphylococcus aureus [17] = test: Antibacterial activity against methicillin resistant Staphylococcus aureus 6347 cultured in MH medium assessed as reduction in bacterial growth incubated for 48 hrs by microbroth dilution method; type: functional; settings: Staphylococcus aureus, 6347, 48 h
Staphylococcus aureus [18] = test: Bactericidal activity against methicillin resistant Staphylococcus aureus 6347 cultured in MH medium assessed as reduction in bacterial survival incubated for 48 hrs by microbroth dilution method; type: functional; settings: Staphylococcus aureus, 6347, 48 h
[19] = test system: Staphylococcus epidermidis; test: Antibacterial activity against methicillin resistant Staphylococcus epidermidis ATCC 13199 cultured in MH medium assessed as reduction in bacterial growth incubated for 48 hrs by microbroth dilution method; type: functional; settings: ATCC 13199, 48 h
[20] = test system: Staphylococcus epidermidis; test: Bactericidal activity against methicillin resistant Staphylococcus epidermidis ATCC 13199 cultured in MH medium assessed as reduction in bacterial survival incubated for 48 hrs by microbroth dilution method; type: functional; settings: ATCC 13199, 48 h
Streptococcus pneumoniae [21] = test: Antibacterial activity against Streptococcus pneumoniae cultured in MH medium assessed as reduction in bacterial growth incubated for 48 hrs by microbroth dilution method; type: functional
Streptococcus pneumoniae [22] = test: Bactericidal activity against Streptococcus pneumoniae cultured in MH medium assessed as reduction in bacterial survival incubated for 48 hrs by microbroth dilution method; type: functional
Serratia marcescens [23] = test: Antibacterial activity against Serratia marcescens ATCC 12795 cultured in MH medium assessed as reduction in bacterial growth incubated for 48 hrs by microbroth dilution method; type: functional; settings: ATCC 12795, 48 h
Serratia marcescens [24] = test: Bactericidal activity against Serratia marcescens ATCC 12795 cultured in MH medium assessed as reduction in bacterial survival incubated for 48 hrs by microbroth dilution method; type: functional; settings: ATCC 12795, 48 h
Proteus vulgaris [25] = test: Resistance index, ratio of MIC for Proteus vulgaris NCTC 4635 measured after 15 passages to MIC for Proteus vulgaris NCTC 4635 measured after 48 hrs incubation by microbroth dilution method; type: functional
[26] = test system: Staphylococcus epidermidis; test: Ratio of gatifloxacin resistance index to compound resistance index for methicillin resistant Staphylococcus epidermidis ATCC 13199 by microbroth dilution method; type: functional
Escherichia coli [27] = test: Antibacterial activity against […] Escherichia coli ATCC 8739 assessed as reduction in bacterial growth incubated for 48 hrs in presence of 50 ug/ml […], PAbetaN by microbroth dilution method; type: functional; settings: ATCC 8739, 48 h
Escherichia coli [28] = test: Bactericidal activity against […] Escherichia coli ATCC 8739 assessed as reduction in bacterial survival incubated for 48 hrs in presence of 50 ug/ml […], PAbetaN by microbroth dilution method; type: functional; settings: ATCC 8739, 48 h
HEK293 [29] = test: Cytotoxicity against human HEK293 cells assessed as cell viability upto 20 uM incubated for 72 hrs by MTT assay; type: cell-based; settings: hek293, 72 h
HEK293 [30] = test: Cytotoxicity against human HEK293 cells assessed as changes in cell morphology upto 20 uM incubated for 72 hrs by MTT assay; type: cell-based; settings: hek293, 72 h
Proteus vulgaris [31] = test: Antibacterial activity against Proteus vulgaris NCTC 4635 measured after 15 passages by microbroth dilution method; type: functional
Enterococcus hirae [32] = test: Bactericidal activity against Enterococcus hirae ATCC 1052 cultured in BHI medium assessed as reduction in bacterial survival incubated for 48 hrs by microbroth dilution method; type: functional; settings: ATCC 1052, 48 h
Proteus vulgaris [33] = test: Resistance index, ratio of MIC for Proteus vulgaris NCTC 4635 measured after 5 dilution steps to MIC for Proteus vulgaris NCTC 4635 measured after 48 hrs incubation by microbroth dilution method; type: functional

| SMILES | log K [1] | MIC (Staphylococcus aureus [2]) | MBC (Staphylococcus aureus [3]) | MIC (Staphylococcus aureus [4]) | MBC (Staphylococcus aureus [5]) | MIC [6] | MBC [7] | MIC (Enterococcus hirae [8]) | MIC (Bacillus spizizenii [9]) | MBC (Bacillus spizizenii [10]) | MIC (Escherichia coli [11]) | MBC (Escherichia coli [12]) | MIC (Pseudomonas aeruginosa [13]) | MBC (Pseudomonas aeruginosa [14]) | MIC (Proteus vulgaris [15]) | MBC (Proteus vulgaris [16]) | MIC (Staphylococcus aureus [17]) | MBC (Staphylococcus aureus [18]) | MIC [19] | MBC [20] | also measured |
| --- | --- | --- | --- | --- | --- | --- | --- | --- | --- | --- | --- | --- | --- | --- | --- | --- | --- | --- | --- | --- | --- |
| COc1c(N2CC[N+]3(CN4C(C)=CC(C)=C(C(=O)O)C4=N3)C(C)C2)c(F)cc2c(=O)c(C(=O)O)cn(C3CC3)c12.[Cl-] (configuration not stated) | -0.408 | 8 µg/mL | 16 µg/mL | 8 µg/mL | 8 µg/mL | 8 µg/mL | 16 µg/mL | > 512 µg/mL | 2 µg/mL | 2 µg/mL | 2 µg/mL | 2 µg/mL | 32 µg/mL | 256 µg/mL | 0.5 µg/mL | 0.5 µg/mL | 8 µg/mL | 16 µg/mL | 4 µg/mL | 8 µg/mL | MIC (Streptococcus pneumoniae [21]): 128 µg/mL; MBC (Streptococcus pneumoniae [22]): 256 µg/mL; MIC (Serratia marcescens [23]): 32 µg/mL; MBC (Serratia marcescens [24]): 32 µg/mL; Ratio (Proteus vulgaris [25]): 4; Ratio [26]: 2; MIC (Escherichia coli [27]): 1 µg/mL; MBC (Escherichia coli [28]): 2 µg/mL; Activity (HEK293 [29]): Non-Toxic; Activity (HEK293 [30]): Non-Toxic; MIC (Proteus vulgaris [31]): 2 µg/mL |
| COc1c(N2CCNC(C)C2)c(F)cc2c(=O)c(C(=O)O)cn(C3CC3)c12 (configuration not stated) [GATIFLOXACIN] | 0.101 | 0.25 µg/mL (≈ 0.666 µM) | 0.25 µg/mL (≈ 0.666 µM) | 0.125 µg/mL (≈ 0.333 µM) | 0.125 µg/mL (≈ 0.333 µM) | 0.125 µg/mL (≈ 0.333 µM) | 0.25 µg/mL (≈ 0.666 µM) | 8 µg/mL (≈ 21.3 µM) | 0.032 µg/mL (≈ 0.0852 µM) | 0.063 µg/mL (≈ 0.168 µM) | 0.016 µg/mL (≈ 0.0426 µM) | 0.032 µg/mL (≈ 0.0852 µM) | 0.25 µg/mL (≈ 0.666 µM) | 0.25 µg/mL (≈ 0.666 µM) | 0.008 µg/mL (≈ 0.0213 µM) | 0.008 µg/mL (≈ 0.0213 µM) | 0.125 µg/mL (≈ 0.333 µM) | 0.125 µg/mL (≈ 0.333 µM) | 0.063 µg/mL (≈ 0.168 µM) | 0.063 µg/mL (≈ 0.168 µM) | MBC (Enterococcus hirae [32]): 16 µg/mL (≈ 42.6 µM); MIC (Streptococcus pneumoniae [21]): 1 µg/mL (≈ 2.66 µM); MBC (Streptococcus pneumoniae [22]): 256 µg/mL (≈ 682 µM); MIC (Serratia marcescens [23]): 0.25 µg/mL (≈ 0.666 µM); MBC (Serratia marcescens [24]): 0.5 µg/mL (≈ 1.33 µM); Ratio (Proteus vulgaris [33]): 32 |
